Reference: patent publication US20090068290A1, “BIFEPRUNOX DOSES FOR TREATING SCHIZOPHRENIA” (priority 2006, published 2009)

Columns and labels:
Assay type in all cases: in vivo, human
[1] = tested on: adult subjects with schizophrenia; experiment: PANSS total score, Clinical Study One (6-week, risperidone-referenced); conditions: for Change from Baseline in PANSS Total Score, Median / Change from Baseline in PANSS Total Score, Mean (S.D.): Risperidone 6 mg, ITT
Experimental: (§1) There were five treatment groups in this study. […] Study medication was administered once daily. After Baseline measurements were performed, the titration phase was begun. Bifeprunox treated subjects were titrated up to 5 mg, 10 mg or 20 mg according to a standardized titration schedule (Day 1: 0.125 mg, Day 2: 0.25 mg, Day 3: 0.5 mg, Day 4: 1.0 mg, Day 5: 2.0 mg, Day 6: 5.0 mg, Day 7: 10.0 mg, Day 8: 20 mg). When the assigned dose was reached, subjects were maintained at that dose for the remainder of the six-week treatment period.
Test Product. Dose and Mode of Administration: Bifeprunox tablets, total daily dose 0.125 mg to 20 mg administered orally using a once daily dosing regimen.
The change in the Positive and Negative Symptom Scale (PANSS) total score, from baseline to endpoint, was the primary outcome measure. Secondary efficacy measures included: PANSS positive, PANSS negative, PANSS general psychopathology (GPP) score, PANSS-derived Brief Psychiatric Rating Scale (BPRS) score, Clinical Global Impressions-Severity of Illness (CGI-S), CGI-Improvement (CGI-I) scores, and responder rates. Safety and tolerability evaluations included extrapyramidal symptoms (EPS), weight gain, lipid profile, and serum prolactin.

[2] = tested on: adult subjects with schizophrenia; experiment: PANSS responder rates, Clinical Study One; conditions: Risperidone 6 mg; ITT
Experimental: as §1

[3] = tested on: adult subjects with schizophrenia; experiment: PANSS total score, Clinical Study Two (6-week, risperidone-referenced); conditions: Risperidone 6 mg, LOCF, ITT
Experimental: Treatment started with a single-blind placebo lead-in period of at least three days, followed by titration from 0.25 mg up to 30 mg/day or 40 mg/day of bifeprunox for bifeprunox-treated subjects.
Rating scale assessments were performed weekly, except for week 5, to measure the change from baseline to endpoint of the PANSS total score. Other assessments included: PANSS positive symptom subscale score, PANSS negative symptom subscale score, PANSS general pschopathology subscale score, BPRS total score, BPRS psychosis score, the CGI-S score, the CGI-I score, responder rates based on the PANSS total score, and the Calgary Depression Scale for Schizophrenia (CDSS).
Subjects who completed this study had the option to continue in the long-term. […] After completing a Single-Blind placebo lead-in period of at least three days, bifeprunox-treated subjects were titrated from 0.25 mg up to 30 mg/day or 40 mg/day according to a standardized titration scheme over an eight-day period. When the assigned dose was reached, subjects were maintained at that dose for the remainder of the six week treatment period. […] Rating scale assessments for efficacy and abnormal movement disorders were done weekly except for Week 5. Safety assessments were performed at Screening, during treatment and at the end of the study. Subject satisfaction with study medication was assessed at Week 6. Samples of blood were obtained at Weeks 2, 4, and 6 for determination of bifeprunox in plasma. Blood samples were also obtained at Screening/Baseline, Week 3, and Week 6 for clinical laboratory assessments.
Diagnosis and Main Criteria for Inclusion: Male or female subjects 18-75 years of age with schizophrenia (per DSM-IV-TR criteria). Subjects had to have a total score on the PANSS between 70 and 120; at least two of four PANSS items (conceptual disorganization, hallucinatory behavior, suspiciousness, unusual thought content) had to have a score ≧4; and the score on the CGI-S had to be at least 4.

[4] = tested on: adult subjects with schizophrenia; experiment: SAS, BAS and AIMS movement scales, Clinical Study Two; conditions: Risperidone 6 mg
Experimental: Pharmacokinetic (PK) data of bifeprunox in schizophrenic subjects were also assessed and are presented in a separate report (combined with data from study S1543003).
The SAS is used to measure Parkinsonian-type symptoms in patients exposed to antipsychotics. The scale consists of 10 items, each rated on a 5-point scale ranging from 0 (complete absence of the condition) to 4 (presence of the condition in extreme form). The SAS total score is defined as the sum of all item scores, and the range is 0 to 40. A SAS total score of up to 3 is considered normal.
The BAS is used to rate observable, restless movements of drug-induced akathisia as well as the subjective awareness of restlessness and any distress associated with the akathisia. The scale consists of 3 items that is rated from 0 (no evidence of akathisia) to 3 (severe akathisia). The BAS total score is defined as the sum of the these three BAS item scores and ranges from is 0 to 9. In addition, a global clinical assessment of akathisia is rated from 0 (no evidence of akathisia) to 5 (severe akathisia).
The AIMS, designed to record the occurrence of dyskinetic movements, consists of 12 items. Items 1 to 7 measure specific involuntary movements on a scale from 0 (none) to 4 (severe). Items 8 to 10 measure global assessment of abnormal movement on a scale from 0 (no awareness) to 4 (aware, severe distress). Items 11 and 12 are questions regarding the dental condition of the patient, with yes/no answers. The total score is calculated by summing AIMS items 1 through 10 and ranges from 0 to 40; the non-global total score is calculated by summing items 1 through 7.

How did the “Change from Baseline in PANSS Total Score, Median” value (shortened to “Change from Baseline … Median”) ([1]; Endpoint LOCF) turn out when `Cc1nc2n(c(=O)c1CCN1CCC(c3noc4cc(F)ccc34)CC1)CCCC2` [Risperidone, risperidone, reference compound] was run?
The value was −14.

And the “Change from Baseline in PANSS Total Score, Mean (S.D.)” value (“Change from Baseline … (S.D.)” below) ([1]; Week 1, LOCF)?
Its value is −8.2 (11.1).

What about the “Change from Baseline … Median” value ([1]; Week 1, LOCF) of the same compound?
The value was −7.

What about the “Change from Baseline … (S.D.)” value ([1]; Week 2, LOCF) of the same compound?
The value was −13.1 (13.9).

What about the “Change from Baseline … Median” value ([1]; Week 2, LOCF) of the same compound?
Its value is −12.

What about the “Change from Baseline … (S.D.)” value ([1]; Week 3, LOCF) of the same compound?
Its value is −15.3 (14.1).

And the “Change from Baseline … Median” value ([1]; Week 3, LOCF)?
Its value is −13.

What about the “Change from Baseline … (S.D.)” value ([1]; Week 4, LOCF) of the same compound?
The value was −14.4 (14.5).

What about the “Change from Baseline … Median” value ([1]; Week 4, LOCF) of the same compound?
The value was −13.

And the “all efficacy measures at endpoint compared to placebo” value ([1]; risperidone 6 mg (Example 4))?
Its value is “statistically significant at endpoint compared to placebo for all efficacy measures”.

What about the “separation of active reference from placebo” value ([1]; risperidone 6 mg, 6 weeks) of the same compound?
Its value is “showed clear separation from the placebo group”.

What about the “PANSS Responder at Endpoint (LOCF), 20% Definition” value [2] of the same compound?
Its value is 46 (40) n (%).

What about the “PANSS Responder at Endpoint (LOCF), 25% Definition” value [2] of the same compound?
The value was 34 (29) n (%).

What about the “PANSS Responder at Endpoint (LOCF), 30% Definition” value [2] of the same compound?
The value was 26 (22) n (%).

And the “PANSS Responder at Endpoint (LOCF), 35% Definition” value [2]?
The value was 15 (13) n (%).

And the “Change from Baseline in PANSS Total Score, Mean (SD)” value (“Change from Baseline … (SD)” for short) ([3]; Week 1)?
Its value is −8.7 (10.2).

What about the “Change from Baseline … Median” value ([3]; Week 1) of the same compound?
Its value is −9.

What about the “Change from Baseline … (SD)” value ([3]; Week 2) of the same compound?
The value was −14.8 (14.2).

What about the “Change from Baseline … Median” value ([3]; Week 2) of the same compound?
Its value is −15.

And the “Change from Baseline … Median” value ([3]; Week 3)?
The value was −18.

And the “Change from Baseline … (SD)” value ([3]; Week 4)?
The value was −19.2 (17.0).

And the “Change from Baseline … Median” value ([3]; Week 4)?
Its value is −20.

And the “Change from Baseline … (SD)” value ([3]; Week 6/Endpoint)?
The value was −19.7 (19.3).

And the “Change from Baseline … Median” value ([3]; Week 6/Endpoint)?
Its value is −21.

What about the “subjects with abnormal SAS scores at Endpoint” value [4] of the same compound?
Its value is 14%.
